Experimental data: paper PMC12419465, “Photoresponsive molecular tweezers modulate Taspase 1 activity” (RSC Chemical Biology, 2025)
Like-named read-outs stand apart in the source and are kept apart here.

Experiments:
[1] = Photoisomerization: photostationary states by 1H NMR, switching cycles by UV-vis; type: physicochemical
Procedure: Tweezer constructs were synthesized as an E/Z mixture, with a strong preference for the thermodynamically stable E isomer. For photoisomerization, UV-vis spectra of TWAAP and TWAB (50 μM in water) were recorded in their initial state. The constructs were then isomerized to the Z isomer with UV light (λ = 365 nm, 1 min) and back to the E isomer with green light (λ = 520 nm, 5 min). Two light sources were used: UV LED HighPower-LED with 3 W of λ = 365 nm (LED Engin Inc., San Jose, California, US) and a LSC-G HighPower-LED with 3 W of λ = 520 nm (Cree Inc., Durham, North Carolina, US). UV-vis spectroscopy was routinely employed to analyze the tweezer constructs, serving as the method of choice to monitor configurational integrity after multiple switching cycles. More than 10 switching cycles were performed without any loss of configurational integrity. The UV-vis spectra were recorded with a JASCO V-650 double-beam spectrophotometer (JASCO).
The photophysical properties of AAP tweezers TWAAP0-4 as well as those of AZO tweezers TWAB1-2 were consistent with previous reports on these photoswitches. […] The two isomers are easily distinguished by the significant difference in their absorption bands (Fig. 2 and Fig. S4a, b). […] Irradiation with green light further increases the concentration of the E isomer, as confirmed by both UV/vis and NMR spectra. The switching process can be repeated for over 10 cycles without loss of configurational integrity or photodegradation of the tweezer. […] (Fig. 2 and Table S1).
Supplementary Table S1. Photostationary states (PSSE→Z and PSSZ→E) and half-life of Z isomers of
respectively. n.d., not determinable.
TW construct PSSE→Z [%] PSSZ→E [%] […]

[2] = biological target: T1, wildtype Taspase 1 (Homo sapiens, UniProt Q9H6P5); assay: Recombinant cleavage assay with GST-MLL2700–2850-GFP-His substrate; type: biochemical; details: for IC50: ligand conc. 10 - 100 µM, 200 nM Taspase 1, 5 µM substrate, n = 3, read-out: IC50 TW (recombinant cleavage, full-length protein)
T1 sequence (Q9H6P5 1-233 limits assumed): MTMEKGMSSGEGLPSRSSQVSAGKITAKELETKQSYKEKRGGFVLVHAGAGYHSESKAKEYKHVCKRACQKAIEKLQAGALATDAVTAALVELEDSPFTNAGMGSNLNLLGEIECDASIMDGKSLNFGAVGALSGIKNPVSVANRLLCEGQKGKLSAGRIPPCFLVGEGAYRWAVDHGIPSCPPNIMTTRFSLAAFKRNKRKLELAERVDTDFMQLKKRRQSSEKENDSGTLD
T1 sequence (Q9H6P5 234-420 limits assumed): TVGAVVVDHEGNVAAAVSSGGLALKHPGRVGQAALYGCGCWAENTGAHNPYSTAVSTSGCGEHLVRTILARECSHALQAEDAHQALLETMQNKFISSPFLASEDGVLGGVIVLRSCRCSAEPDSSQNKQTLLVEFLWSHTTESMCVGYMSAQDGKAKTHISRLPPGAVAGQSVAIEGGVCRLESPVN
Procedure: The recombinant cleavage assay employing the recombinant fusion protein GST-MLL2700–2850-GFP-His, which contains the CS2 cleavage site of the Mixed-lineage leukemia (MLL) protein as a substrate for Taspase 1, was performed as described.[9,10]
Given that Taspase 1's active site is positioned directly at the base of the loop harboring the bipartite NLS (Fig. 1A, and Fig. S1), it is reasonable to expect that our photoswitchable tweezer constructs, which recognize this signal, might also influence proteolytic activity - similar to the inhibition observed with our “first-generation” multivalent ligands.[10] In principle the presence of a sterically demanding artificial ligand may hinder or even completely block substrate binding and subsequent cleavage. To assess this, we employed a well-established in vitro cleavage assay using a recombinant, truncated fusion protein harboring the second cleavage site (CS2) of the Mixed Lineage Leukemia 1 (MLL1) protein, a bona fide Taspase 1 substrate.[39] In this assay, the cleaved and uncleaved substrate fractions of the GST-MLL2700–2850-GFP-His substrate were separated on a Coomassie-stained gel, and signal intensities of the different cleavage bands were quantified (Fig. 7, Fig. S8, and Fig. S9). The addition of recombinant, proteolytically active Taspase 1 (200 nM) led to efficient substrate cleavage, which was inhibited by all photoswitchable tweezer constructs in a concentration-dependent manner. IC50 values for the full series of switchable tweezer constructs ranged from 20 to 50 μM, with measurements taken separately for both E and Z isomers Fig. (S9).
Fig. 7 Switchable tweezer constructs interfere with Taspase 1 proteolytic activity. Cleavage assay utilizing the cleavage site CS2 from the natural substrate MLL (GST-MLL2700–2850-GFP-His) and active wildtype Taspase 1. Inhibition of proteolysis was evaluated by the relative amount of uncleaved substrate. Briefly, 5 μM recombinant substrate were incubated with 200 nM wildtype Taspase 1-His and increasing concentrations of TWAAP0-4 (10 - 100 μM), pre-irradiated with either UV light (365 nm, violet), or green light (520 nm, green), or solvent only. Proteolytic activity in solvent-treated samples was set to 100%, and data from TWAAP-treated samples were normalized accordingly. IC50 values were determined by densitometric quantification of the cleavage bands from the gels shown in Fig. S9, followed by nonlinear curve fitting. These values were also used to generate the summary bar plots shown on the right. Data are shown as the mean ± SD from three independent experiments. Composed with https://BioRender.com.
Figure S8. Photoswitchable TWAAP constructs interfere with Taspase 1’s proteolytic activity.
Cleavage assay utilizing the cleavage site CS2 from the natural substrate MLL (GST -MLL2700-2850-GFP-His, 70 kDa) and active wildtype Taspase 1. Inhibition of proteolysis was evaluated by the relative amount of uncleaved in relation to cleaved substrate (50 kDa and 20 kDa, respectively). Briefly, 5 µM recombinant substrate were incubated with 200 nM wildtype Taspase 1-His and increasing concentrations (10 - 100 µM) of indicated TWAAP irradiated with UV (365 nm, left gel panels) or green light (520 nm, right gel panels). Solvent-treated samples (referred to as untreated, un.) served as reference, and as additional controls, Taspase 1 (-T) was omitted or only Taspase 1 (TASP1) was applied. Representative images of three independent experiments are shown. Composed with […]
Figure S9. Photoswitchable TWAAB constructs interfere with Taspase 1’s proteolytic activity. Cleavage assay utilizing the cleavage site CS2 from the natural substrate MLL (GST -MLL2700-2850-GFP-His, 70 kDa) and active wildtype Taspase 1. Inhibition of proteolysis was evaluated by the relative amount of uncleaved in relation to cleaved substrate (50 kDa and 20 kDa, respectively).
Briefly, 5 µM recombinant substrate were incubated with 200 nM wildtype Taspase 1-His and […]

Q: Which “PSS E→Z, photostationary state” value ([1]; UV 365 nm) does the source give for `O=P(O)(O)Oc1c2c(c(OP(=O)(O)OCCn3cc(COCc4ccc(N=Nc5ccc(COCc6cn(CCOP(=O)(O)Oc7c8c(c(OP(=O)(O)O)c9c7C7CC9c9cc%10c(cc97)C7CC%10c9ccccc97)C7CC8c8cc9c(cc87)C7CC9c8ccccc87)nn6)cc5)cc4)nn3)c3c1C1CC3c3cc4c(cc31)C1CC4c3ccccc31)C1CC2c2cc3c(cc21)C1CC3c2ccccc21` [TWAB2] here?
A: 59%

Q: And the “PSS Z→E, photostationary state” value ([1]; green light 520 nm)?
A: 56%

Q: And the IC50 ([2]; E isomer)?
A: 22.3 µM

Q: What about the IC50 ([2]; Z isomer) of the same compound?
A: 24.9 µM

Q: What about the “Difference in inhibitory activity between E and Z isomers (times greater potency of E isomer)” value ([2]; particularly at 50 μM) of the same compound?
A: no difference
